Measured values taken from patent US10392379B2, “Hepatitis B core protein modulators” (Assembly Biosciences, Inc., priority 2015, dated 2019).

Tests used:
AD38 cells = assay: Viability of AD38 cells (Promega CellTiter-Glo); assay type: cell-based; settings: 10 μM compound, 6 days, DMSO controls = 100%
Method: (§1) AD38 cells were then re-suspended with 10 mL of Treatment Medium and counted. Wells of a collagen coated 96-well NUNC microtiter plate were seeded at 50,000/well in 180 μL of Treatment Medium, and 20 μL of in treatment media with either 10% DMSO (Control) or a 10× solution of compound in 10% DMSO was added. Plates were incubated for 6 days at 37° C.
At the end of compound treatment period cell viability was assessed using a Promega CellTiter-Glo protocol. All supernatant was removed the previously treated 96-well microtiter plate, and 50 μL Tetracycline-free treatment medium (DMEM/F12 (1:1), 1× Pen/step (cat#: 30-002-CL, Mediatech, Inc), with 2% FBS, Tet-system approved (cat#: 631106, Clontech), and 1% DMSO was added back to each well. Another 50 μL of CellTiter-Glo reagent solution (Promega, G7573) was then added at room temperature and the contents mixed for 2 minutes on an orbital shaker to induce cell lysis. This was followed by incubation at room temperature for 10 minutes to stabilize the luminescent signal. The luminescence was recorded for 0.2 seconds per well on a Tecan multimode platereader (Infinite M1000 pro). The luminescent signal from each well was normalized against that of untreated (DMSO) control wells. All results in Table 3 were reported with percent viability (with controls being 100%).

HBV = assay: Viral load production in AD38 cells by quantitative PCR of the core sequence; assay type: cell-based; settings: Hepatitis B virus, 144 h, 10 μM compound, 6 days, supernatant qPCR, relative to DMSO control, read-out: AD38 Viral Load (%) (VL with cmpd/VL in DMSO control) at 10 μM
Method: as §1
Viral load production was assayed by quantitative PCR of the core sequence. […] The PCR mixture was incubated at 45° C. for 5 minutes, then 95° C. for 10 min, followed by 40 cycles of 10 seconds at 95° C. and 20 seconds at 60° C. Viral load was quantitated against known standards by using ViiA™ 7 Software. Viral load in the supernatant from wells with treated cells were compared against viral load in supernatant from DMSO control wells (≥3 per plate).

SMILES	AD38 Viability Normalized Result (cmpd/DMSO %) at 10 μM (AD38 cells) [%]	activity at 10 µM (HBV) [%]
COc1ccc(Cc2ccc(CNC(=O)c3ccc4c(c3)NC(=O)c3ccccc3O4)cn2)cc1 [Compound 837-A, N-((6-(4-methoxybenzyl)pyridin-3-yl)methyl)-11-oxo-10, 11-dihydrodibenzo[b,f][1, 4]oxazepine-8-carboxamide]	105	5.6
O=C(NCc1cnc(-c2ccc3[nH]ncc3c2)nc1)c1ccc2c(c1)NC(=O)c1ccccc1S2(=O)=O [Compound 790]	103	1.7
N#Cc1ccc(-c2ccc(CNC(=O)c3ccc4c(c3)NC(=O)c3ccccc3S4(=O)=O)cn2)cc1 [Compound 867]	86	0.6
O=C(NCc1cncnc1)c1ccc2c(c1)NC(=O)c1ccccc1N2 [Compound 504]	101	62.9
O=C(NCc1cnc(-c2ccccc2CO)nc1)c1ccc2c(c1)NC(=O)c1ccccc1S2(=O)=O [Compound 844]	103	10.2
O=C(NCc1ccc(-c2ccc3[nH]ccc3c2)nc1)c1ccc2c(c1)NC(=O)c1ccccc1S2(=O)=O [Compound 779]	87	0.5
O=C(NCc1nnc(-c2ccc(O)cc2)s1)c1ccc2c(c1)NC(=O)c1ccccc1O2 [Compound 739]	108	62.2
O=C(NCc1cnc(-c2ccc(O)c(F)c2)nc1)c1ccc2c(c1)NC(=O)c1ccccc1S2(=O)=O [Compound 796]	111	1.4
Cc1cc2c(cc1C(=O)NCc1cncnc1)NC(=O)c1ccccc1S2 [Compound 495]	96	23.1
NC(=O)c1ccc(-c2ccc(CNC(=O)c3ccc4c(c3)NC(=O)c3ccccc3S4(=O)=O)nc2)cc1 [Compound 870, N-((5-(4-carbamoylphenyl)pyridin-2-yl)methyl)-11-oxo-10, 11-dihydrodibenzo[b,f][1,4]thiazepine-8-carboxamide 5,5-dioxide]	106	82.7
O=C(NCc1ccc(-c2ccc(O)cc2F)nc1)c1ccc2c(c1)NC(=O)c1ccccc1S2(=O)=O [Compound 785]	94	2.1
O=C(NCCc1ccccn1)c1ccc2c(c1)NC(=O)c1ccccc1N2 [Compound 505]	103	48.2
COc1ccc(Cc2ccc(CNC(=O)c3ccc4c(c3)NC(=O)c3ccccc3S4(=O)=O)cn2)cc1 [Compound 825-A, N-((6-(4-methoxybenzyl)pyridin-3-yl)methyl)-11-oxo-10, 11-dihydrodibenzo[b,f][1,4]thiazepine-8-carboxamide 5,5-dioxide]	58	6.2
CC1c2ccc(C(=O)NCc3cncnc3)cc2NC(=O)c2ccccc21 (stereo not shown) [Compound 545]	95	1.4
O=C(NCc1ccc(-c2ccc(O)cc2)nc1)c1ccc2c(c1)NC(=O)c1ccccc1S2(=O)=O [Compound 778]	104	3.2
NC(=O)c1ccc(-c2ncc(CNC(=O)c3ccc4c(c3)NC(=O)c3ccccc3S4(=O)=O)cn2)cc1 [Compound 872, N-((2-(4-carbamoylphenyl)pyrimidin-5-yl)methyl)-11-oxo-10, 11-dihydrodibenzo[b,f][1,4]thiazepine-8-carboxamide 5,5-dioxide]	104	5.2
O=C(NCc1ccc(-c2ccc(O)c(Cl)c2)nc1)c1ccc2c(c1)NC(=O)c1ccccc1S2(=O)=O [Compound 784]	103	137
O=C(NCc1ccc(-c2ccc3[nH]cnc3c2)nc1)c1ccc2c(c1)NC(=O)c1ccccc1S2(=O)=O [Compound 781]	102	7.3

SMILES	AD38 Viability Normalized Result (cmpd/DMSO %) at 10 μM (AD38 cells) [%]	activity at 10 µM (HBV) [%]
O=C(NCc1ccc(C(F)(F)F)nc1)c1ccc2c(c1)NC(=O)c1ccccc1S2(=O)=O [Compound 875]	108	26.1
Nc1ncc(-c2ncc(CNC(=O)c3ccc4c(c3)NC(=O)c3ccccc3S4(=O)=O)cn2)cn1 [Compound 792]	105	23.1
O=C(NCc1cnc(-c2ccc(O)cc2)nc1)c1ccc2c(c1)NC(=O)c1ccccc1S2(=O)=O [Compound 788]	111	1.9
N#Cc1ccc(-c2ncc(CNC(=O)c3ccc4c(c3)NC(=O)c3ccccc3S4(=O)=O)cn2)cc1 [Compound 871, N-((2-(4-cyanophenyl)pyrimidin-5-yl)methyl)-11-oxo-10, 11-dihydrodibenzo[b,f][1,4]thiazepine-8-carboxamide 5,5-dioxide]	96	1.3
O=C(NCc1cnc(C(F)(F)F)nc1)c1ccc2c(c1)NC(=O)c1ccccc1S2(=O)=O [Compound 876]	101	65.5
O=C(NCc1cnc(-c2ccc(O)cc2F)nc1)c1ccc2c(c1)NC(=O)c1ccccc1S2(=O)=O [Compound 795]	106	6.4
O=C(NCc1ccc(-c2ccccc2CO)nc1)c1ccc2c(c1)NC(=O)c1ccccc1S2(=O)=O [Compound 843]	103	18.8
O=C(NCc1cnc(-c2ccc(O)c(Cl)c2)nc1)c1ccc2c(c1)NC(=O)c1ccccc1S2(=O)=O [Compound 794]	104	1.3
Cc1cc2c(cc1C(=O)NCc1cccnc1)NC(=O)c1ccccc1S2 [Compound 497]	97	38.7
O=C(NCc1ccc(-c2cc(F)c(O)c(F)c2)nc1)c1ccc2c(c1)NC(=O)c1ccccc1S2(=O)=O [Compound 787]	100	15.5
O=C(NCc1ccc(-c2ccc3[nH]ncc3c2)nc1)c1ccc2c(c1)NC(=O)c1ccccc1S2(=O)=O [Compound 780]	106	1.8
NC(=O)c1ccc(-c2ccc(CNC(=O)c3ccc4c(c3)NC(=O)c3ccccc3S4(=O)=O)cn2)cc1 [Compound 868, N-((6-(4-carbamoylphenyl)pyridin-3-yl)methyl)-11-oxo-10,11-dihydrodibenzo[b,f][1,4]thiazepine-8-carboxamide 5,5-dioxide]	103	27.7
Nc1ncc(-c2ccc(CNC(=O)c3ccc4c(c3)NC(=O)c3ccccc3S4(=O)=O)cn2)cn1 [Compound 782]	108	25.4
O=C(NCCc1cccnc1)c1ccc2c(c1)NC(=O)c1ccccc1N2 [Compound 506]	100	31.6
O=C(NCc1cccnc1)c1ccc2c(c1)NC(=O)c1cc(Cl)ccc1S2 [Compound 540]	52	0.6
N#Cc1ccc(-c2ccc(CNC(=O)c3ccc4c(c3)NC(=O)c3ccccc3S4(=O)=O)nc2)cc1 [Compound 869, N-((5-(4-cyanophenyl)pyridin-2-yl)methyl)-11-oxo-10,11-dihydrodibenzo[b, f][1,4]thiazepine-8-carboxamide 5,5-dioxide]	83	13.3
O=C(NCc1ccc(-c2ccc(O)cc2Cl)nc1)c1ccc2c(c1)NC(=O)c1ccccc1S2(=O)=O [Compound 783]	105	6.3
